This is an account of results in article PMC9496228, “Plasma Clearance of Intravenously Infused Adrenomedullin in Rats with Acute Renal Failure” (Biomolecules, 2022).

The structures appear in SMILES notation. Where two headings read alike, the source gives them in different places.

The nature of data set [1]: Human adrenomedullin 60-min continuous intravenous infusion study in rats, plasma pharmacokinetics. In kind it is in vivo, rat. The following applies: mean ± SD; for level at time molar at 1 h / half-life / clearance: male, Lewis, rat, in vivo; for level at time molar at 1 h: 0.1 ug/kg/min, hAM iv infusion 0.1 µg/kg/min, read-out: Plasma AM concentration at 60 min after initiating treatment (AM C60); for half-life: read-out: T1/2β, half-life in the terminal phase after stopping infusion; for clearance: hAM iv infusion 0.1 µg/kg/min for 60 min, dose divided by AUC0–60, read-out: CLtotal, total systemic clearance. On the procedure:
Renal dysfunction was induced by subcutaneous injection of 3 mg/kg mercury chloride (1 mg/mL saline) to rats (RD-Ag, n = 7) on the day before the adrenomedullin pharmacokinetic study. Control rats were treated with saline (normal renal function, NF, n = 5). Twenty-four hours after injection of mercury chloride (4 h before hAM administration), blood was collected from the tail vein of rats and serum creatinine (sCr) was measured using DRI-CHEM (FUJIFILM, Tokyo, Japan) to confirm the severity of renal damage. After the hAM administration study, the lungs and kidneys were removed from each group of rats, immersed in RNAlater (Thermo Fisher Scientific, Waltham, MA, USA), and frozen at −30 °C for later analysis.
Rats were subjected to cannulation at the beginning as described below. After laparotomy through a midline abdominal incision, the bilateral renal artery and vein of the rat were exposed and blocked with vascular clips to develop another model of renal dysfunction (RD-Bl, n = 3). Immediately after the vascular blockade, the rats were studied for hAM infusion experiment.
Rats under isoflurane anesthesia were placed on a heated surgical table in the supine position and subjected to cannulation (PE 50, Becton, Dickinson and Company, Franklin Lakes, NJ, USA) of the carotid artery and jugular vein. Human AM was dissolved in 20% mannitol to a concentration of 300 ng/mL and continuously administered at 0.1 µg/kg/min for 60 min via venous cannula using an infusion pump (KDS-100, KD Scientific, Holliston, MA, USA). After hAM administration had begun, 0.6 mL of whole blood was drawn from the arterial cannula at 0, 5, 10, 20, 30, 45, 60, 61.5, 63, 65, 70, 75, 80, and 90 min.
(§1) To measure plasma hAM concentrations, whole blood was collected with 2 mg/mL EDTA-2Na and 500 Kallikrein Inhibitory Units (KIU)/mL of aprotinin. Plasma was obtained by centrifugation at 10,000× g for 2 min at 4 °C and stored at −30 °C until the assays were performed. Plasma hAM concentration was measured using an automated immunoassay system (AIA-System, Tosoh Corporation, Tokyo, Japan) that was described previously, including intra- and inter-assay variations. This system is a one-step fluorescence sandwich immunoassay for the detection of human AM using two monoclonal antibodies against human AM(12–25) and AM(46–52).
Pharmacokinetic parameters in rats were calculated from individual plasma AM concentration vs time curves during and after 1 h intravenous infusion of hAM based on standard procedures. The area under the plasma concentration vs time curve (AUC0–60) was calculated during the first 60 min using a linear trapezoidal method, and the total systemic clearance (CLtotal) was calculated as the dose administered divided by AUC0–60. A plot of plasma concentration vs time after stopping hAM infusion yielded a biexponential curve. The elimination rate constant and half-life (T1/2β) in the terminal phase were calculated from individual plasma AM concentration vs time curves with a two-compartment model using the Solver tool in Microsoft Excel to minimize the sum of the squared residual values. Weighting was set to the standard deviation of plasma concentrations measured at each blood sampling point.

A short description of data set [2]: Human adrenomedullin intraperitoneal administration study in E-RAMP2 KO and control mice, plasma concentration. The conditions noted are these: mouse, in vivo, ip, 50 ug/kg, mean ± SD, read-out: Plasma AM concentration; for level at time molar at 10 min: 10 min after 50 μg/kg hAM intraperitoneally; for level at time molar at 0.5 h: 30 min after 50 μg/kg hAM intraperitoneally. The method, then:
E-RAMP2 KO mice (aged 9–10 weeks) were generated by intraperitoneal administration of 75 mg/kg tamoxifen suspended in corn oil (20 mg/mL) once daily for five consecutive days. Mice of the same strain treated only with corn oil were used as a control group. Three to four mice were prepared for each blood collection point.
as §1

Data set [3] addresses AM receptor (CLR and RAMP2 or -3 heterodimeric receptors). The following applies: read-out: equilibrium dissociation constant for its receptor (Kd); cited from earlier work. The source says:
Therefore, the administered AM appears to bind almost exclusively to its receptor and undergo receptor-mediated clearance. The AM receptor is made up of CLR and RAMP2 or -3 heterodimeric receptors. RAMP2 or -3 is a molecular chaperone required for CLR transport to the cell surface as well as for specifying the affinity of CLR for AM [35]. The distribution of ^125I-labeled AM in ...

[4] abbreviates: RD-Bl rats (bilateral renal blood flow blockage, n = 3).

By Kd is commonly meant the constant that tells how readily two partners part at equilibrium. With `CC[C@H](C)[C@H](NC(=O)[C@H](CCC(N)=O)NC(=O)[C@H](Cc1c[nH]cn1)NC(=O)[C@H](C)NC(=O)[C@H](CC(C)C)NC(=O)[C@H](CCCCN)NC(=O)[C@H](CCC(N)=O)NC(=O)[C@@H](NC(=O)[C@@H](NC(=O)[C@@H]1CSSC[C@H](NC(=O)CNC(=O)[C@H](Cc2ccccc2)NC(=O)[C@H](CO)NC(=O)[C@H](CCCNC(=N)N)NC(=O)[C@H](CC(C)C)NC(=O)CNC(=O)[C@H](CCC(N)=O)NC(=O)[C@H](Cc2ccccc2)NC(=O)[C@H](CC(N)=O)NC(=O)[C@H](CC(N)=O)NC(=O)[C@H](CCSC)NC(=O)[C@H](CO)NC(=O)[C@H](CCC(N)=O)NC(=O)[C@H](CCCNC(=N)N)NC(=O)[C@@H](N)Cc2ccc(O)cc2)C(=O)N[C@@H](CCCNC(=N)N)C(=O)N[C@@H](Cc2ccccc2)C(=O)NCC(=O)N[C@@H]([C@@H](C)O)C(=O)N1)[C@@H](C)O)C(C)C)C(=O)N[C@@H](Cc1ccc(O)cc1)C(=O)N[C@@H](CCC(N)=O)C(=O)N[C@@H](Cc1ccccc1)C(=O)N[C@H](C(=O)N[C@@H](CC(=O)O)C(=O)N[C@@H](CCCCN)C(=O)N[C@@H](CC(=O)O)C(=O)N[C@@H](CCCCN)C(=O)N[C@@H](CC(=O)O)C(=O)N[C@@H](CC(N)=O)C(=O)N[C@H](C(=O)N[C@@H](C)C(=O)N1CCC[C@H]1C(=O)N[C@@H](CCCNC(=N)N)C(=O)N[C@@H](CO)C(=O)N[C@@H](CCCCN)C(=O)N[C@H](C(=O)N[C@@H](CO)C(=O)N1CCC[C@H]1C(=O)N[C@@H](CCC(N)=O)C(=O)NCC(=O)N[C@@H](Cc1ccc(O)cc1)C(N)=O)[C@@H](C)CC)C(C)C)[C@@H](C)O` [AM, Human adrenomedullin], in data set [1] (RD-Ag rats (mercury chloride, n = 7), after 60-min iv infusion of hAM 0.1 µg/kg/min, two-compartment model), the “T1/2β, half-life in the terminal phase after stopping infusion” value was 22.2 ± 9.8 min. Also, the level at time molar at 1 h was determined as 0.0781 ± 0.0105 nM in data set [1] (setting [4]); 0.049 ± 0.0136 nM in data set [1] (iv, NF rats (n = 5)); 0.162 ± 0.0887 nM in data set [1] (iv, RD-Ag rats (mercury chloride, n = 7)). The half-life in data set [1] (iv, 0.1 µg/kg/min, NF rats (n = 5), after 60-min iv infusion of hAM 0.1 µg/kg/min, two-compartment model) worked out at 15 ± 1.4 min; in data set [1] (RD-Bl rats (bilateral renal blood flow blockage, n = 3), after 60-min iv infusion of hAM 0.1 µg/kg/min, two-compartment model) it was 16.7 ± 1.8 min. The clearance in data set [1] (iv, 0.1 µg/kg/min, NF rats (n = 5)) was determined as 45.1 ± 13.8 L/h/kg; in data set [1] (iv, 0.1 µg/kg/min, RD-Ag rats (mercury chloride, n = 7)), 11.5 ± 6.1 L/h/kg; in data set [1] (setting [4]), 27 ± 4.13 L/h/kg. In addition, the level at time molar at 10 min stood at 3.98 ± 0.381 nM in data set [2] (E-RAMP2 KO mice (n = 3–4)) and 1.07 ± 0.595 nM in data set [2] (control mice (Cont, n = 3–4)). Besides, the level at time molar at 0.5 h in data set [2] (E-RAMP2 KO mice (n = 3–4)) turned out to be 0.759 ± 0.234 nM; in data set [2] (control mice (Cont, n = 3–4)), 0.118 ± 0.0737 nM. For the same molecule, in data set [3], the Kd is 0.3 to 0.6 nM.
